Test results from patent publication US7880007B2, “Bicyclic substituted phenyl piperidine modulators of muscarinic receptors” (Vertex Pharmaceuticals Incorporated, priority 2004, dated 2011).

Key:
Type in all cases: cell-based
M1 muscarinic receptor = target: T1, M1 muscarinic receptor (Homo sapiens, UniProt P11229); experiment: Functional mobilization of intracellular calcium (FLIPR), M1-CHO cells; settings: for Emax: 100% efficacy = maximum response obtained with the Carbachol control; for M1 Activity: M1-CHO cells, calcium mobilization (FLIPR)
T1 construct: expressed in transfected cells; host or cells: CHO (M1-CHO)
T1 sequence (P11229 1-460): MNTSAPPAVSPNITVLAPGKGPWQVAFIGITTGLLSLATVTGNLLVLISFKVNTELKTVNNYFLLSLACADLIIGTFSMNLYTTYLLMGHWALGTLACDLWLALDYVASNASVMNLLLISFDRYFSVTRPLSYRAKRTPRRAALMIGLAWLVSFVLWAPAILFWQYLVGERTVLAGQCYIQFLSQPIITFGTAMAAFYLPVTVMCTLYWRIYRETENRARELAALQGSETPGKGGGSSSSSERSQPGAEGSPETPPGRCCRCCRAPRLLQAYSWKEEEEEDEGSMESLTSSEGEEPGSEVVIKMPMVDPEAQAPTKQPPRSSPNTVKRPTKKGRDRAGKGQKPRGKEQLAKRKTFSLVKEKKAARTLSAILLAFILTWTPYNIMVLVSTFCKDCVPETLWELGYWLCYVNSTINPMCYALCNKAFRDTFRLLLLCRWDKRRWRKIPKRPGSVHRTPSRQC
Method in brief: (§1)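 FLIPR fluorescence (ex 488, em 540 nm) recorded 60 sec after compound addition to dye-loaded CHO cells. Agonist mode: compound alone. Antagonist mode: 15 min compound pre-incubation, then carbachol at EC80, or co-application. Efficacy expressed as % of maximal carbachol response.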

M2 muscarinic receptor = target: T2, M2 muscarinic receptor (Homo sapiens, UniProt P08172); experiment: Functional mobilization of intracellular calcium (FLIPR), M2-CHO cells; settings: for Emax: 100% efficacy = maximum response obtained with the Carbachol control; for M2 Activity: M2-CHO cells, calcium mobilization (FLIPR)
T2 construct: expressed in transfected cells; host or cells: CHO (M2-CHO)
T2 sequence (P08172 1-466): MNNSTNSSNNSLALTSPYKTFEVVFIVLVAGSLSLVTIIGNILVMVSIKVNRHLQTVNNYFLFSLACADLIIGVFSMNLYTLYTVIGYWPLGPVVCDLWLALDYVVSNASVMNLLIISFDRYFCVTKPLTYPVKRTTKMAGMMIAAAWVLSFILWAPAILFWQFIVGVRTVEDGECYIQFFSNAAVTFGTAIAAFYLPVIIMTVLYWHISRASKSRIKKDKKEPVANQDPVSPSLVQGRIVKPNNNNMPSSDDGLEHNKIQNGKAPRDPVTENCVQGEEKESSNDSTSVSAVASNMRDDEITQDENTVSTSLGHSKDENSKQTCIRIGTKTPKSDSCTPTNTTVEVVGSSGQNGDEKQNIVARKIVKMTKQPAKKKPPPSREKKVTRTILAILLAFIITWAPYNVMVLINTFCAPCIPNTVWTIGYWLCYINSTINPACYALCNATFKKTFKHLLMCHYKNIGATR
Method in brief: as §1

M3 muscarinic receptor = target: T3, M3 muscarinic receptor (Homo sapiens, UniProt P20309); experiment: Functional mobilization of intracellular calcium (FLIPR), M3-CHO cells; settings: for Emax: 100% efficacy = maximum response obtained with the Carbachol control; for M3 Activity: M3-CHO cells, calcium mobilization (FLIPR)
T3 construct: expressed in transfected cells; host or cells: CHO (M3-CHO)
T3 sequence (P20309 whole entry): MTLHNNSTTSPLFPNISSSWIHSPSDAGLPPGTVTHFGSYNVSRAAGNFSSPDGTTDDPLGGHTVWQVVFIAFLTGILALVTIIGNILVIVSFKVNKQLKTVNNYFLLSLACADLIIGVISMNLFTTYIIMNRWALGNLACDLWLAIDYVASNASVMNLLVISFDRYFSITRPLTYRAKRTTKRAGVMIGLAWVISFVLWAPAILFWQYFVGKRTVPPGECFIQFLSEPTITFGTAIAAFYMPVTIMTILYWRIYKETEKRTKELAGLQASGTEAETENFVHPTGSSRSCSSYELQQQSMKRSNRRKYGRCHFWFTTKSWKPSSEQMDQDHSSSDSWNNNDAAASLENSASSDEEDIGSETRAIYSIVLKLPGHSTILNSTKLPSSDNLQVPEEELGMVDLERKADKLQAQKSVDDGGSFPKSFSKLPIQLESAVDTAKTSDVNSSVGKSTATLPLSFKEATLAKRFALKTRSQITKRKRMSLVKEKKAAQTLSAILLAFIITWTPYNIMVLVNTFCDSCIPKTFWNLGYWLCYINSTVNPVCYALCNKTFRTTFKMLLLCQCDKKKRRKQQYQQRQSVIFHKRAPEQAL
Method in brief: as §1

M4 muscarinic receptor = target: T4, M4 muscarinic receptor (Homo sapiens, UniProt P08173); experiment: Functional mobilization of intracellular calcium (FLIPR), M4-CHO cells; settings: for Emax: 100% efficacy = maximum response obtained with the Carbachol control; for M4 Activity: M4-CHO cells, calcium mobilization (FLIPR)
T4 construct: expressed in transfected cells; host or cells: CHO (M4-CHO)
T4 sequence (P08173 1-479): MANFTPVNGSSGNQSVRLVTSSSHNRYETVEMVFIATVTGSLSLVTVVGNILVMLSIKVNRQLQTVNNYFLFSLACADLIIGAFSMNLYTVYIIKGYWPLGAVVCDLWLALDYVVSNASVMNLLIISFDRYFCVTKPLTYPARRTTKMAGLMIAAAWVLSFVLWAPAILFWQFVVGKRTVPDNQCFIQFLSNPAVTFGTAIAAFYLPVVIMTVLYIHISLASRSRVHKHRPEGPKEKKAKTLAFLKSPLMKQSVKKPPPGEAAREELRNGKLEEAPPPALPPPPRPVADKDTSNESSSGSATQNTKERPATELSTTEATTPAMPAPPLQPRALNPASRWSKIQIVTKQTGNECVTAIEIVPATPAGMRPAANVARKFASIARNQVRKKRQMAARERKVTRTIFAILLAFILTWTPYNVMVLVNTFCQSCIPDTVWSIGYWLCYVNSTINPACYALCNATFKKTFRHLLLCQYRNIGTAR
Method in brief: as §1

Compound	Emax (M1 muscarinic receptor)	Emax (M2 muscarinic receptor)	Emax (M3 muscarinic receptor)	Emax (M4 muscarinic receptor)	M1 Activity (M1 muscarinic receptor)	M2 Activity (M2 muscarinic receptor)	M3 Activity (M3 muscarinic receptor)	M4 Activity (M4 muscarinic receptor)
CCOC(=O)N1C2CCC1CC(N1CCC(F)(c3cc(Cl)ccc3OC)CC1)C2 (stereo not drawn) [Compound 219, 4-(5-chloro-2-methoxyphenyl)-4-fluoropiperidine tropane ethyl carbamate]	25 to 100%	< 25%	< 25%	25 to 100%	+++ (activity was measured to be less than 1.0 μM)	+ (activity was measured to be greater than 5.0 μM)	+ (activity was measured to be greater than 5.0 μM)	+++ (activity was measured to be less than 1.0 μM)
COc1ccccc1C1CCN(C2CCC3CCC2C3)CC1 (stereo not drawn) [Compound 221]	25 to 100%	< 25%	< 25%	25 to 100%	+ (activity was measured to be greater than 5.0 μM)	+ (activity was measured to be greater than 5.0 μM)	+ (activity was measured to be greater than 5.0 μM)	+++ (activity was measured to be less than 1.0 μM)
COc1ccc(C#CCC(C)C)cc1C1CCN([C@H]2C[C@H]3CC[C@H]2C3)CC1 [Compound 223]	< 25%	< 25%	< 25%	25 to 100%	+ (activity was measured to be greater than 5.0 μM)	+ (activity was measured to be greater than 5.0 μM)	+ (activity was measured to be greater than 5.0 μM)	+ (activity was measured to be greater than 5.0 μM)
COc1ccccc1C1CCN(C2CCCCCC2)CC1 [Compound 224]	25 to 100%	< 25%	< 25%	25 to 100%	+ (activity was measured to be greater than 5.0 μM)	+ (activity was measured to be greater than 5.0 μM)	+ (activity was measured to be greater than 5.0 μM)	+++ (activity was measured to be less than 1.0 μM)
Cc1cccc(C2CCN(C3C[C@H]4CC[C@H]3C4)CC2)c1C (stereo partly drawn) [Compound 225]	25 to 100%	< 25%	< 25%	25 to 100%	+ (activity was measured to be greater than 5.0 μM)	+ (activity was measured to be greater than 5.0 μM)	+ (activity was measured to be greater than 5.0 μM)	++ (activity was measured to be from 1.0 μM to 5.0 μM)
CCOC(=O)N1C2CCC1CC(N1CCC(c3cc(-c4ccc(C(=O)NC)c(Cl)c4)ccc3OC)CC1)C2 (stereo not drawn) [Compound 226]	< 25%	< 25%	< 25%	25 to 100%	+ (activity was measured to be greater than 5.0 μM)	+ (activity was measured to be greater than 5.0 μM)	+ (activity was measured to be greater than 5.0 μM)	++ (activity was measured to be from 1.0 μM to 5.0 μM)
COc1ccc(F)cc1C1(O)CCN(CC2CCOCC2)CC1 [Compound 231]	< 25%	< 25%	< 25%	< 25%	+ (activity was measured to be greater than 5.0 μM)	+ (activity was measured to be greater than 5.0 μM)	+ (activity was measured to be greater than 5.0 μM)	+ (activity was measured to be greater than 5.0 μM)

Second part, led by results:

Emax (M1 muscarinic receptor)	Emax (M2 muscarinic receptor)	Emax (M3 muscarinic receptor)	Emax (M4 muscarinic receptor)	Compound	M1 Activity (M1 muscarinic receptor)	M2 Activity (M2 muscarinic receptor)	M3 Activity (M3 muscarinic receptor)	M4 Activity (M4 muscarinic receptor)
25 to 100%	< 25%	< 25%	25 to 100%	COc1cc(F)c(F)cc1C1CCN([C@H]2C[C@H]3CC[C@H]2C3)CC1 [Compound 227]	+ (activity was measured to be greater than 5.0 μM)	+ (activity was measured to be greater than 5.0 μM)	+ (activity was measured to be greater than 5.0 μM)	++ (activity was measured to be from 1.0 μM to 5.0 μM)
< 25%	< 25%	< 25%	25 to 100%	COc1ccc(C(=O)c2ccsc2)cc1C1CCN([C@H]2C[C@H]3CC[C@H]2C3)CC1 [Compound 230]	+ (activity was measured to be greater than 5.0 μM)	+ (activity was measured to be greater than 5.0 μM)	+ (activity was measured to be greater than 5.0 μM)	+++ (activity was measured to be less than 1.0 μM)
25 to 100%	< 25%	< 25%	25 to 100%	COc1ccccc1C1CCN(CC2CCCC2)CC1 [Compound 232]	+ (activity was measured to be greater than 5.0 μM)	+ (activity was measured to be greater than 5.0 μM)	+ (activity was measured to be greater than 5.0 μM)	++ (activity was measured to be from 1.0 μM to 5.0 μM)
25 to 100%	< 25%	< 25%	25 to 100%	COc1ccccc1C1CCN(CC2CCOCC2)CC1 [Compound 233]	+ (activity was measured to be greater than 5.0 μM)	+ (activity was measured to be greater than 5.0 μM)	+ (activity was measured to be greater than 5.0 μM)	++ (activity was measured to be from 1.0 μM to 5.0 μM)
< 25%	< 25%	< 25%	< 25%	COc1ccccc1C1CCN(C2CCC(c3ccccc3)CC2)CC1 (stereo not drawn) [Compound 234]	+ (activity was measured to be greater than 5.0 μM)	+ (activity was measured to be greater than 5.0 μM)	+ (activity was measured to be greater than 5.0 μM)	+ (activity was measured to be greater than 5.0 μM)
25 to 100%	< 25%	< 25%	25 to 100%	COc1ccccc1C1CCN(C2CCOCC2)CC1O (stereo not drawn) [Compound 235]	+ (activity was measured to be greater than 5.0 μM)	+ (activity was measured to be greater than 5.0 μM)	+ (activity was measured to be greater than 5.0 μM)	+ (activity was measured to be greater than 5.0 μM)
25 to 100%	< 25%	< 25%	25 to 100%	c1cc2c(c(C3CCN(C4C[C@@H]5CC[C@@H]4C5)CC3)c1)OCO2 (stereo partly drawn) [Compound 236]	++ (activity was measured to be from 1.0 μM to 5.0 μM)	+ (activity was measured to be greater than 5.0 μM)	+ (activity was measured to be greater than 5.0 μM)	+++ (activity was measured to be less than 1.0 μM)
< 25%	< 25%	< 25%	25 to 100%	COc1ccc(-c2ccoc2)cc1C1CCN([C@@H]2C[C@H]3CC[C@H]2C3)CC1 [Compound 237]	+ (activity was measured to be greater than 5.0 μM)	+ (activity was measured to be greater than 5.0 μM)	+ (activity was measured to be greater than 5.0 μM)	++ (activity was measured to be from 1.0 μM to 5.0 μM)
